This passage reports IC50 results from BindingDB's records for doi:10.7270/Q20863PV (University of Pittsburgh, 2006).

pIC50: −log10 of the molar value. Where only a bound is given, the exact number is not on record here.

In general, pIC50 refers to the negative decadic logarithm of the IC50, by convention in mol/L. Read a low pIC50 as a large IC50.

In this test the target is T1, Dual specificity protein phosphatase 1 (Homo sapiens, UniProt P28562).
T1 sequence (P28562 whole entry): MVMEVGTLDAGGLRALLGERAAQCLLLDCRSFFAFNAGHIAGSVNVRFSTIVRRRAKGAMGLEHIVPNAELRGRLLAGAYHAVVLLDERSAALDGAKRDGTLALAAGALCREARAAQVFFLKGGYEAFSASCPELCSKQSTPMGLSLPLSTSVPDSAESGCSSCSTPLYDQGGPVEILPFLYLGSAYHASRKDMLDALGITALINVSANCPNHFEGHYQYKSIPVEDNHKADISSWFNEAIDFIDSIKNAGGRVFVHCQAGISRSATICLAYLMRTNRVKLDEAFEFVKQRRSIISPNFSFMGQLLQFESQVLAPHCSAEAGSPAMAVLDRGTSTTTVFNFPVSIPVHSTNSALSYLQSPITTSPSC
Put plainly: DTT effect on MKP-1 inhibitor potency – biochemical, DTT added, probe assessment, dose response (AID 558).

`[O-]/[N+](=C\c1ccc(OC(F)F)cc1)c1ccccc1` [1-[4-(difluoromethoxy)phenyl]-N-phenylmethanimine oxide] had a negative-log IC50 (pIC50) of less than 4.30.

Regarding `O=C(Nc1ccc2nc(-c3ccco3)c(-c3ccco3)nc2c1)N1CCCCCC1`, the pIC50 was 4.62.

`O=C1C=C(NCc2ccc(Cl)c(Cl)c2)CC1` [3-[(3,4-dichlorobenzyl)amino]cyclopent-2-en-1-one] showed a negative-log IC50 (pIC50) of less than 4.30.

For the compound `Cc1c(N=c2c(=O)c3ccccc3c2=O)c(=O)n(-c2ccccc2)n1C` [MLS000105950], the negative-log IC50 (pIC50) is less than 4.30.

As to `CC(C)Sc1nc2sc3c(c2c2nnc(SCC(=O)NCc4ccco4)n12)CCCC3` [MLS000082957], the pIC50 is 4.64.

As to `COc1ccc(-c2cc3nc(C4CCN(C(=O)OC(C)(C)C)CC4)c(C(=O)O)cn3n2)cc1` [2-(4-methoxyphenyl)-5-[1-[(2-methylpropan-2-yl)oxy-oxomethyl]-4-piperidinyl]-6-pyrazolo[1,5-a]pyrimidinecarboxylic acid], the pIC50 is 4.44. This pIC50 is 0.20 log units lower than that of the compound before.

Compound `CC(=O)[C@@H]1[C@@H]2C(=O)N(c3ccc(F)c(Cl)c3)C(=O)[C@@H]2C2c3ccccc3C=CN21` (some centres undefined) [MLS000040594] gave a pIC50 of less than 4.30.

As to `Cc1cccc(N2CCN(C(=O)Cc3c(C(=O)O)[nH]c4ccc(Cl)cc34)CC2)c1C` [5-chloranyl-3-[2-[4-(2,3-dimethylphenyl)piperazin-1-yl]-2-oxidanylidene-ethyl]-1H-indole-2-carboxylic acid], the pIC50 is 4.33.

In turn, `[O-]/[N+](=C\c1ccncc1)c1ccccc1` showed a pIC50 of 4.33.

Turning to `N#Cc1c(N2CCCC2)nc(N)c2c(N)nc(N3CCCC3)cc12` [SMR000061605], the pIC50 is less than 4.30.

In turn, `CC(C)(C)N1C(=O)Cc2c1nc(N)c1c(N)nc(N3CCCCC3CO)c(C#N)c21` (centres undefined) [5,6-bis(azanyl)-3-tert-butyl-8-[2-(hydroxymethyl)piperidin-1-yl]-2-oxidanylidene-1H-pyrrolo[2,3-c][2,7]naphthyridine-9-carbonitrile] showed a pIC50 of less than 4.30.

Consider `CCCCn1c(SCC(=O)c2ccc(OC)cc2OC)nc2cc(S(N)(=O)=O)ccc21` [1-butyl-2-[2-(2,4-dimethoxyphenyl)-2-oxidanylidene-ethyl]sulfanyl-benzimidazole-5-sulfonamide], for which the negative-log IC50 (pIC50) is 4.38.

The compound `Nc1nc2c(s1)CCc1c-2cnn1-c1ccccc1` [MLS000085948] had a pIC50 of less than 4.30.

`N#Cc1c(NC(=O)c2ccc(Br)o2)n(-c2ccccc2)c2nc3ccccc3nc12` [5-bromanyl-N-(3-cyano-1-phenyl-pyrrolo[3,2-b]quinoxalin-2-yl)furan-2-carboxamide] gave a negative logarithm of the IC50 (pIC50) of less than 4.30.

Turning to `O=C1C=Cc2ccccc2C1=O` [1,2-dihydronaphthalene-1,2-dione], the negative-log IC50 (pIC50) was 4.65.

For the compound `CCCSc1nnc(NC(=O)c2sc3nc(-c4cccs4)ccc3c2N)s1` [3-amino-N-(5-propylsulfanyl-1,3,4-thiadiazol-2-yl)-6-thiophen-2-ylthieno[2,3-b]pyridine-2-carboxamide], the pIC50 was 4.59.

The compound `COc1cc(/C=C(/C#N)c2ccc(F)cc2)ccc1OCc1ccc(C(=O)O)o1` [5-({4-[2-cyano-2-(4-fluorophenyl)vinyl]-2-methoxyphenoxy}methyl)-2-furoic acid] had a pIC50 of less than 4.30.

`CCCCCC#CCC#CCC#CCC#CCCCC(=O)O`: the negative logarithm of the IC50 (pIC50) was 4.88.

For the compound `Cc1cc(NC(=O)c2ccc(S(=O)(=O)N3CCCC3)cc2)nc2c1c(=O)oc1ccccc12` [MLS000091355], the negative logarithm of the IC50 (pIC50) is 4.58.

For the compound `CCc1ccc(NC(=O)CSc2nc3ccccc3c(=O)n2CCN2CCOCC2)cc1` [MLS000095236], the pIC50 was less than 4.30.

Compound `Nc1c(N2CCCC2)cc(Cl)c2nonc12` [(7-chloro-5-pyrrolidino-benzofurazan-4-yl)amine] gave a negative logarithm of the IC50 (pIC50) of less than 4.30.

`O=C(OC1CCCCC1)c1ccc2c(c1)C1C=CCC1C(C(=O)O)N2` (centres undefined) [SMR000019385] showed a negative logarithm of the IC50 (pIC50) of 4.76.

`CC(C)Cn1c(N)c(C(=O)COC(=O)c2cc(-c3ccco3)nc3ccccc23)c(=O)n(C)c1=O` [2-(2-furanyl)-4-quinolinecarboxylic acid [2-[4-amino-1-methyl-3-(2-methylpropyl)-2,6-dioxo-5-pyrimidinyl]-2-oxoethyl] ester] had a pIC50 of 4.59.

With `Cn1ncnc2c(=O)n(C)c(=O)nc1-2`, the pIC50 was less than 4.30.

Consider `COc1ccc(Br)cc1C=c1sc2nc(-c3ccco3)nn2c1=O` [5-[(5-bromanyl-2-methoxy-phenyl)methylidene]-2-(furan-2-yl)-[1,3]thiazolo[3,2-b][1,2,4]triazol-6-one], for which the pIC50 is 4.76.

`Cc1ccc(-c2csc(NC(=O)c3ccno3)n2)cc1` [MLS000081820] showed a negative-log IC50 (pIC50) of 4.30.

On to `Cc1ccc(C)n1-c1cccc(C(=O)O)c1`, for which the negative-log IC50 (pIC50) was 4.77.

In turn, `O=C1C(=C2C(=O)c3ccccc3C2=O)Nc2ccccc21` [MLS000071738] showed a negative-log IC50 (pIC50) of less than 4.30.

`CCCCn1c(NC(=O)c2ccccc2)c(C#N)c2nc3ccccc3nc21` [SMR000060333] gave a pIC50 of 4.49.

On to `CC1=C(/C=C/C(C)=C/C=C/C(C)=C/C(=O)O)C(C)(C)CCC1` [ALL-TRANS-RETINOIC ACID], for which the negative-log IC50 (pIC50) was 4.31.

In turn, `[O-]/[N+](=C/c1ccc(F)cc1)c1ccccc1` [(E)-(4-fluorobenzylidene)(phenyl)azane oxide] gave a pIC50 of less than 4.30.

In turn, `CCCCCNC(=O)c1ccc2c(=O)[nH]c3c(C(=O)NCC4CCCO4)sc(=S)n3c2c1` (centres undefined) [5-oxo-N3-(2-oxolanylmethyl)-N8-pentyl-1-sulfanylidene-4H-thiazolo[3,4-a]quinazoline-3,8-dicarboxamide] gave a negative-log IC50 (pIC50) of 4.44.

Consider `CCn1c(SCC(=O)Nc2ccc3c(c2)c2ccccc2n3CC)nnc1-c1ccco1` [MLS000050867], for which the negative-log IC50 (pIC50) is 4.68. This pIC50 lies 0.24 log units higher than the previous one.

With `Cc1nc2cc(-c3cccc(F)c3)nn2c(C)c1CCC(=O)N1CCC2(CC1)OCCO2` [1-(1,4-dioxa-8-azaspiro[4.5]decan-8-yl)-3-[2-(3-fluorophenyl)-5,7-dimethyl-6-pyrazolo[1,5-a]pyrimidinyl]-1-propanone], the pIC50 was less than 4.30.

Turning to `CCOc1cc(/C=C(/C#N)c2ccc(F)cc2)ccc1OCc1ccc(C(=O)O)o1` [5-[[4-[(E)-2-cyano-2-(4-fluorophenyl)ethenyl]-2-ethoxyphenoxy]methyl]furan-2-carboxylic acid], the negative logarithm of the IC50 (pIC50) was 4.38.

For the compound `COC(=O)c1ccccc1NC(=O)CN1C(=O)C2CCCN2c2ncc(Cl)cc21` (centres undefined) [MLS000094302], the negative logarithm of the IC50 (pIC50) was less than 4.30.

`Cc1ccc(/C=C/C2=Cc3c(sc(NC(=O)CSc4nnc(N)[nH]4)c3C#N)C(C)(C)C2)o1` [2-[(5-azanyl-1H-1,2,4-triazol-3-yl)sulfanyl]-N-[3-cyano-7,7-dimethyl-5-[(E)-2-(5-methylfuran-2-yl)ethenyl]-6H-1-benzothiophen-2-yl]ethanamide] gave a pIC50 of 4.70.

`O=C(NC1(O)C(=O)c2ccccc2C1=O)c1ccccc1` [N-(2-hydroxy-1,3-dioxo-2-indenyl)benzamide] showed a pIC50 of less than 4.30.

Compound `COc1ccc(Cn2c(C)nc3c(c2=O)c2nc4ccccc4nc2n3Cc2ccco2)cc1` [MLS000079944] showed a negative-log IC50 (pIC50) of 4.66.

Compound `N#Cc1c(N)sc(=S)c2c1CCN(Cc1ccccc1)C2` [3-Amino-7-benzyl-1-thioxo-5,6,7,8-tetrahydro-1H-thiopyrano[3,4-c]pyridine-4-carbonitrile] showed a pIC50 of less than 4.30.

As for `CCOc1ccc2noc3c2c1C(=O)c1ccccc1-3` [MLS000106837], the pIC50 is 4.52.

Consider `CCOC(=O)c1ccc2c(c1)C1C=CCC1C(C(=O)O)N2` (centres undefined) [MLS-0025126.0001], for which the pIC50 is 4.49.

`O=C(Nc1ccccc1)c1ccc2nc(-c3ccco3)c(-c3ccco3)nc2c1` [2,3-di-2-furyl-N-phenyl-6-quinoxalinecarboxamide] gave a negative-log IC50 (pIC50) of 4.49.

On to `COCCCn1c(N)c(C(=O)NCCC(C)C)c2nc3ccccc3nc21` [MLS000041744], for which the pIC50 is less than 4.30.

Regarding `CCn1nc(-c2cccs2)nc2c(=O)n(C)c(=O)nc1-2` [1-ethyl-6-methyl-3-thiophen-2-yl-pyrimido[5,4-e][1,2,4]triazine-5,7-dione], the pIC50 is less than 4.30.

As for `O=C(c1cccs1)c1no[n+]([O-])c1C(=O)c1cccs1` [(5-oxidanidyl-4-thiophen-2-ylcarbonyl-1,2,5-oxadiazol-5-ium-3-yl)-thiophen-2-yl-methanone], the negative-log IC50 (pIC50) is 5.16.

`O=C1c2ccccc2-c2onc3ccc(NCCCn4ccnc4)c1c23` [SMR000044769] gave a pIC50 of 4.45. Against the preceding compound, the pIC50 is 0.71 log units lower.

As to `COc1ccc2noc3c2c1C(=O)c1ccccc1-3` [MLS000106874], the pIC50 is 4.84. Compared with the last compound, the pIC50 is 0.39 log units higher.

`O=C1Nc2ccccc2SC(c2ccccc2)C1O` (centres undefined) [3-hydroxy-2-phenyl-2,3-dihydro-1,5-benzothiazepin-4(5H)-one] had a negative logarithm of the IC50 (pIC50) of 4.45.

`COc1ccc(-n2c(NC(=O)c3ccco3)c(C#N)c3nc4ccccc4nc32)cc1` [MLS000079925] had a pIC50 of less than 4.30.

The compound `FC(F)(F)c1ccc(N2CCOCC2)c(Nc2nc3ccccc3n3cnnc23)c1` [MLS000093276] had a pIC50 of less than 4.30.

Compound `CCCCNC(=O)c1c(N)n(CCCOC)c2nc3ccccc3nc12` [2-amino-N-butyl-1-(3-methoxypropyl)-3-pyrrolo[3,2-b]quinoxalinecarboxamide] had a pIC50 of less than 4.30.

In turn, `Cc1cc(C)n2c(SCC(=O)N3CCN(S(=O)(=O)c4ccc(Cl)cc4)CC3)nnc2n1` [1-[4-(4-chlorophenyl)sulfonyl-1-piperazinyl]-2-[(5,7-dimethyl-[1,2,4]triazolo[4,3-a]pyrimidin-3-yl)thio]ethanone] gave a pIC50 of 4.30.

As to `Cc1cccc(NC(=O)c2cc(NC(=O)C3CCCCC3C(=O)O)ccc2N2CCCCC2)c1` (centres undefined) [2-({[3-{[(3-methylphenyl)amino]carbonyl}-4-(1-piperidinyl)phenyl]amino}carbonyl)cyclohexanecarboxylic acid], the pIC50 is less than 4.30.
